Experimental data from paper PMC10336775 (Proteins, 2022).

Target: afRubisco (Archaeoglobus fulgidus, UniProt O28635)
Experiment: coupled NADH assay of 3PGA formed
Format: biochemical
Details: 2 mM RuBp, 10 mM NaHCO3, 20 mM MgCl2, pH 8.2, 65 C; carboxylase activity

Sequence of afRubisco (O28635 whole entry): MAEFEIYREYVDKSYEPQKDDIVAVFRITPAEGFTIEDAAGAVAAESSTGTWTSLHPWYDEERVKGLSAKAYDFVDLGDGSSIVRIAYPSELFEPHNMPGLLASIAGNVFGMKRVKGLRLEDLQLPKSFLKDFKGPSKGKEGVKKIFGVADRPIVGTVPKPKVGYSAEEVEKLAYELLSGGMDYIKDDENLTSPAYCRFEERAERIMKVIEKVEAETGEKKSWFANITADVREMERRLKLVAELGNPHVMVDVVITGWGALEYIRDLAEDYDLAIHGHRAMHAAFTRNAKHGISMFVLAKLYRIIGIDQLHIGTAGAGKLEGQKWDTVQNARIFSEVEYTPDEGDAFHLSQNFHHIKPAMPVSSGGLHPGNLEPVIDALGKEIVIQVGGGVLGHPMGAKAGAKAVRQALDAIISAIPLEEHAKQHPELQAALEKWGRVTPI

Question: How did the “coupled NADH assay of 3PGA formed (340 nm)” value turn out when O=C(COP(=O)(O)O)[C@H](O)[C@H](O)COP(=O)(O)O [RuBp] was run?
Answer: Its value is “Activated afRubisco has very low carboxylase activity at room temperature but has much higher”.
